Results on seven compounds are retold here after US20230119479A1, “A HISTONE DEACETYLASE INHIBITOR HAVING A NITROGEN-CONTAINING AROMATIC HETEROCYCLYL GROUP” (SHIONOGI & CO., LTD., priority 2019, published 2023).

Some results are limits rather than exact numbers.

Data set [1] in a line: Platelet toxicity test using human blood progenitor cells (WST). It is filed as cell-based. The note with it: human bone marrow CD34+ progenitor cells, maximum concentration 25 μM. As to the method:
Test Example 2: Platelet Toxicity Test Using Human Blood Progenitor Cells
Human bone marrow CD34+ progenitor cells (Lonza, 2M-101B) stored at −80° C. were thawed, spun down at 150 g for 10 minutes at 20° C., and a medium (StemSpan Expansion Supplement, STEM CELL TECHNOLOGIES, ST-02696) to which cytokines (StemSpan SFEM II, STEM CELL TECHNOLOGIES, ST-09655) was added was added to adjust to 2×10^4/well, the mixture was seeded in 12well non-coat dish (Corning, 3513), was incubated for 10 days at 37° C., 5% CO2. After 10 days, the cells were collected and spun down at 150 g for 10 minutes at 20° C., and a medium (StemSpan Expansion Supplement) containing cytokines (StemSpan SFEM II) was added so that the number of cells became 2×10^5 cells/ml. 50 μl of the cell suspension was seeded to each well of a 96-well plate (Corning, 3596) and allowed to stand overnight in an incubator at 37° C., 5% CO2. The next day, 50 μl of the test compound was treated to each well and allowed to stand for 48 hours in the incubator at 37° C., 5% CO2 (n=2). At this time, the test compound dissolved in 100% DMSO was serially diluted with DMSO at a 3-fold ratio, and then a medium containing cytokine was added to adjust the final concentration to 25, 8.33, 2.78, 0.93, 0.31, 0.1 μM. After that, 10 μl of WST (Cell count reagent SF, Nacalai Tesque Inc., 07553-44) was added to each well, and the mixture was allowed to stand in the incubator for 4 hours at 37° C., 5% CO2, and then the multi-label reader 2030 ARVO X4 (PerkinElmer) was used to measure the absorbance. At this time, the absorbance at 450 nm and the absorbance at 620 nm were obtained, and the difference between 450 nm and 620 nm was used as the measured value. The measured values were analyzed by Excel and TIBCO Spotfire, and IC50 values were calculated. At this time, for control (−), the well without cells was set as n=6 for one row, and the average value was calculated, and for control (+), the well in which DMSO was added to the cells so as to have the same concentration as the compound treatment group was set as n=6 for one row, and the average value was calculated and corrected for each plate. For the test compound, the average value of n=2 was used.

A short description of data set [2]: BA test (oral absorption). It is filed as in vivo. The note with it: plasma; mice or rats; oral vs intravenous administration. Here is the method:
Materials and methods for experiments to evaluate oral absorption (1) Experimental animals: mice or rats were used. (2) Rearing condition: mice or rats were allowed free access to solid feed and sterilized tap water. (3) Setting of dosage and grouping: Oral administration and intravenous administration were performed with the predetermined dosage. Grouping was set as below. (Dosage was changed per compound)
Oral administration 2 to 60 μmol/kg or 1 to 30 mg/kg (n=2 to 3)
Intravenous administration 1 to 30 μmol/kg or 0.5 to 10 mg/kg (n=2 to 3)
(4) Preparation of administration solutions: Oral administration was performed as suspension or solution. Intravenous administration was performed after solubilization. (5) Routes of administration: Oral administration was performed mandatory into the stomach by oral sonde. Intravenous administration was performed from caudal vein by syringes with needle. (6) Evaluation items: Blood was collected serially and concentration of a compound of the present invention in plasma was measured by LC/MS/MS. (7) Statistical analysis: About transition of concentration of a compound of the present invention in plasma, the area under the plasma concentration versus time curve (AUC) was calculated by non-linear least-squares method program, and bioavailability (BA) of a compound of the present invention was calculated from dosages and AUCs of the oral administration group and the intravenous administration group. The dilution concentration or the dilution solvent were changed as necessary.

Data set [3] can be described thus: Metabolism stability test. It is filed as in vitro ADME. The note with it: human liver microsomes 0.5 mg protein/mL, 30 minutes, 37° C., NADPH. Here is the method: Using commercially available pooled human hepatic microsomes, a compound of the present invention is reacted for a constant time, and a remaining rate is calculated by comparing a reacted sample and an unreacted sample, thereby, a degree of metabolism in liver is assessed.
A reaction is performed (oxidative reaction) at 37° C. for 0 minute or 30 minutes in the presence of 1 mmol/L NADPH in 0.2 mL of a buffer (50 mmol/L Tris-HCl pH 7.4, 150 mmol/L potassium chloride, 10 mmol/L magnesium chloride) containing 0.5 mg protein/mL of human liver microsomes. After the reaction, 50 μL of the reaction solution is added to 100 μL of a methanol/acetonitrile=1/1 (v/v), mixed and centrifuged at 3000 rpm for 15 minutes. The compound of the present invention in the supernatant is quantified by LC/MS/MS or Solid Phase Extraction (SPE)/MS, and a remaining amount of the compound of the present invention after the reaction is calculated, letting a compound amount at 0 minute reaction time be 100%. The hydrolysis reaction is carried out in the absence of NADPH, and the glucuronidation reaction is carried out in the presence of 5 mmol/L UDP-glucuronic acid instead of NADPH, and the same operation is carried out thereafter. The dilution concentration and dilution solvent are changed as necessary.

In data set [1], `C[C@H](F)COc1cnc(C(=O)Nc2cc(-c3ccc(F)nc3)ccc2N)cn1` (racemic) [Compound I-125] displayed an IC50 at 48 h above 25 µM. For the same compound, the bioavailability in data set [2] amounted to 32.1%. The “remaining rate after reaction” value in data set [3] is given as 80.4%.

The compound `Cn1cc(-c2cnc(C(=O)Nc3nc(-c4cccs4)ccc3N)cn2)cn1` [Compound I-017] showed an IC50 at 48 h in data set [1] above 25 µM. This compound gave a bioavailability in data set [2] of 19.6%. The “remaining rate after reaction” value in data set [3] is given as 81.8%.

`Cn1cc(-c2cnc(C(=O)Nc3nc(-n4cccc4)ccc3N)cn2)cn1` [Compound I-023] had an IC50 at 48 h in data set [1] above 25 µM. The bioavailability in data set [2] was determined as 43.7%. In addition, the “remaining rate after reaction” value in data set [3] came out at 95.3%.

For the compound `Cn1cc(-c2cnc(C(=O)Nc3cc(-c4ccc(F)nc4)ccc3N)cn2)cn1` [Compound I-080], the IC50 at 48 h in data set [1] was above 25 µM. The bioavailability in data set [2] was determined as 38.4%. The “remaining rate after reaction” value in data set [3] was determined as 84.8%.

In data set [1], `N#Cc1ccc(C(=O)Nc2cc(-c3ccc(F)nc3)ccc2N)nc1` [Compound I-092] showed an IC50 at 48 h above 25 µM. For the same compound, the bioavailability in data set [2] amounted to 22.4%. Moreover, the “remaining rate after reaction” value in data set [3] turned out to be 103%.

In data set [1], `CCOc1cnc(C(=O)Nc2cc(-c3ccc(F)nc3)ccc2N)cn1` [Compound I-118] yielded an IC50 at 48 h above 25 µM. Also, the bioavailability in data set [2] came out at 22.7%.

Turning to `Cn1cc(-c2ccc(N)c(NC(=O)c3cnc(C4CC4)cn3)c2)cn1` [Compound I-130], the IC50 at 48 h in data set [1] was above 25 µM. The compound further showed a bioavailability in data set [2] of 37.2%. For the same compound, the “remaining rate after reaction” value in data set [3] is listed as 92.9%.
